The record followed here is US11324748B2, “Vasodilators for treatment of heart failure” (NORTHEAST OHIO MEDICAL UNIVERSITY, priority 2017, dated 2022).

Counter-ions that a name gives are not always drawn.

In test [1] the test system is heart failure (HF) induced by transaortic constriction (TAC). The test can be described thus: Transaortic constriction (TAC) heart failure in mice, echocardiography; chromonar or vehicle from end of week 13. The format is in vivo.
Source text: Ejection fraction is the percentage of blood in the left ventricular chamber that the heart ejects per beat. Under normal conditions, the heart will eject 60-70% of left ventricular volume with each contraction, but the failing heart ejects considerably less. After the control measurements to establish baseline % EF, mice underwent surgery to constrict the aortic artery. This procedure, termed transaortic constriction (TAC), causes the heart to pump against a high blood pressure, which causes it to fail. […] At the end of the 13th week, mice were either treated with chromonar (as continuous infusion) or a vehicle (that the chromonar was dissolved in).
Another way of assessing the effectiveness of a therapy in heart failure is to determine how much volume is in the left ventricle before it begins to contract (termed diastolic volume). When contractile function of the heart declines, this volume progressively increases. This volume is important for a number of reasons. First, it is directly related to energy consumption of the heart (as the volume increases energy consumption is increased). Second, if this volume becomes too large, the heart muscle can be overstretched and will contract even more poorly—this is referred to as decompensated heart failure. Third, as the diastolic volume increases pressures and volumes “upstream” in the atrium and pulmonary vessels will also increase. […]
The subject of test [2] is myocardial blood flow in the failing heart. The test can be described thus: Myocardial blood flow by myocardial contrast echocardiography during norepinephrine cardiac stress test in HF mice. The format is in vivo. The note with it: FIG. 2 right.
Procedure: After the control measurements to establish baseline % EF, mice underwent surgery to constrict the aortic artery. This procedure, termed transaortic constriction (TAC), causes the heart to pump against a high blood pressure, which causes it to fail. […] At the end of the 13th week, mice were either treated with chromonar (as continuous infusion) or a vehicle (that the chromonar was dissolved in).
Myocardial contrast echocardiography (MCE) was used to measure myocardial blood flow in both groups of mice. […] Mice were determined to be in HF when EF<40%). After the development of failure, myocardial blood flow was measured during a cardiac stress test produced by infusion of norepinephrine to increase myocardial metabolic demands. A plot of cardiac work vs MBF was made for the sham mice and for those in HF. To estimate metabolic demands, the index wall stress rate product (WSRP) was developed.
Another test has as its system Takotsubo Syndrome. Put plainly: Takotsubo Syndrome produced by TAC, ventricular function, FIG. 11. The note with it: 4 weeks, 2 weeks of treatment. The format is in vivo, mice.
Test [3] deals with heart failure induced by TAC (transaortic constriction). The settings on record: TAC mice, treatment started at week 5; FIG. 7.
Test [4] deals with mice with heart failure (HFrEF). The test can be described thus: Treadmill exercise time and whole body oxygen consumption in mice with heart failure, FIG. 9.

In the case of `CCOC(=O)COc1ccc2c(C)c(CCN(CC)CC)c(=O)oc2c1` [chromonar, 14.3-(beta-Diethylaminoethyl)-4-methyl-7-(carbethoxymethoxy)-coumarin hydrochloride], in test [1] (treated at end of 13th week, continuous infusion, FIG. 2 left), the “cardiac function (ejection fraction, % EF)” value is listed as “restored cardiac function—nearly back to the control levels”. In addition, the “Left Ventricular Diastolic Volume” value in test [1] (treatment at end of week 13, FIG. 3) is given as “diastolic volumes decreased”. Moreover, the “relationship between MBF and cardiac work (WSRP)” value in test [2] (failing heart after chromonar) was “reconnects the relationship between work and flow in the heart”. Further, in test [2] (failing heart, during changes in cardiac work (WSRP)), the “myocardial blood flow (MBF)” value is “flow is higher”. In addition, the “ventricular function (EF %)” value in the test with Takotsubo Syndrome is listed as “improved ventricular function greatly”. Moreover, the “cardiac function (EF %)” value in test [3] is reported as “improved dramatically”. The “total exercise time on a treadmill” value in test [4] is approximately 70 min.

Regarding `CC(C)NCC(O)COc1cccc2ccccc12` (stereo not shown) [propranolol], in test [3], the “cardiac function (EF %)” value is recorded as “continued to decrease”. For the same compound, the “total exercise time on a treadmill” value in test [4] is “about 45 minutes”. The “whole body oxygen consumption” value in test [4] (within 5 minutes of exercise) is on record as “lower oxygen consumption than the chromonar treated group”.
